In assay [1] the test system is IgE antibody production from murine spleen B cells. Put plainly: Effects on the IgE antibody production from murine spleen cells (LPS + IL4). In kind it is cell-based, BALB/c mouse. To be noted: Mus musculus, B-cell, 168 h, read-out: IC50 value, IgE antibody production. As for the experimental part:
(§1) Using murine spleen B cells, the effects of the compound of the formula (I) on the IgGl, IgM and IgE antibody production induced by the stimulation by LPS (lipopolysaccharide; Product No. 520.02051, manufactured by Wako Junyaku) and IL4 (interleukin 4), were studied. Namely, spleen cells of a BALB/c mouse were treated with a murine anti-Thy-1 antibody (obtained from Chiba University) and a rabbit complement (Product No. 3051, manufactured by cedarlane) to remove T cells, and 3×10^5 spleen B cells were cultured for 7 days together with 10 μg/ml of LPS, 100 U/ml of mouse-recombinant IL4 (Product No. MIL-4C, manufactured by Genzyme) and each concentration (from […]) of the compound of the formula (I) on a microplate with 96 wells by a 10% FCS-RPMI solution (in an incubator, 5% CO2, at 37° C.).
(§2) For the basic procedure of this test, reference was made to The Journal of Immunology, Vol. 136, p. 4538, (1986).
(§3) The amount of each antibody in the cell culture supernatant hereby obtained, was measured by the following enzyme-immunoassay. Firstly, on a microplate with 96 wells, 1 μg/ml of a rabbit anti-mouse IgGl antibody (Product No. 36243, manufactured by Cappel), 1 μg/ml of a goat anti-mouse IgM antibody (Product No. 0611-0201, manufactured by Cappel) or 10 μg/ml of a rat anti-mouse IgE monoclonal antibody (Product No. LO-ME-2, manufactured by Experimental Immunology) was coated (50 μl/well, at room temperature for 60 minutes), and then a nonspecific bond was blocked by a 0.1% bovine serum albumin-containing 10 mM sodium phosphate buffer (pH 7.2) (at room temperature for 60 minutes). Then, the above-mentioned cell culture supernatant or its diluted solution was added in an amount of 50 μl/well and reacted at room temperature for 60 minutes. Further, an alkaline phosphatase-labeled rabbit anti-mouse IgGl antibody (Product No. 61-0122, manufactured by Zymet) diluted 1,000 times, an alkaline phosphatase-labeled rabbit anti-mouse IgM antibody (Product No. 61-6822, manufactured by Zymet) diluted 2,000 times, or an alkaline phosphatase-labeled goat anti-mouse IgE antibody (Product No. PA-284, manufactured by Binding Site) diluted 500 times was added in an amount of 50 μl/well and reacted at room temperature for 60 minutes. 100 μl/well of a 10% diethanol amine buffer solution (pH 9.8) containing p-nitrophenyl phosphate as an enzyme substrate, was reacted, and the absorbance at 405 nm was measured. The amount of each antibody was calculated from the calibration curve of each standard antibody, and the IC50 value of the compound of the formula (I) on the antibody production was calculated using as the control value a value obtained in the absence of the compound of the formula (I).

Assay [2] has as its system murine bone mallow cells. Nature of the assay: Effects on the murine bone mallow cells (proliferation, 3H-TdR uptake). In kind it is cell-based, BALB/c mouse. To be noted: Mus musculus. As for the experimental part:
Bone mallow cells were removed from the femur of a BALB/c mouse and suspended in a 10% FCS-RPMI solution. The cell suspension was put into a plastic Petri dish having a diameter of 10 cm and left to stand still (in an incubator, 5% CO2, at 37° C.). Two hours later, only floating cells were recovered, and adhesion cells were removed. 1×10^5 floating cells were cultured for 48 hours together with a 20% culture supernatant of L929 fibroblastoma and the compound of the formula (I) on a microplate with 96 wells by a 10% FCS-RPMI solution (in an incubator, 5% CO2, at 37° C.). Then, 0.5 μCi of ^3 H-TdR was added thereto, and the mixture was further cultured for 4 hours. Then, cells were collected by a cell harvester, and the radioactivity (dpm) of ^3 H-TdR uptaken into the cells, was measured. Such measured amounts of ^3 H-TdR uptaken into the cells were used as indices for the proliferation of bone mallow cells, and the radioactivity at each concentration (from 0.001 to 1,000 μg/ml) of the compound of the formula (I) was compared with the control value where the L929 culture supernatant was added alone, to calculate the IC50 value. In these Tables 12 and 13, the results of the bone mallow cells are shown by (c).
For the basic procedure of this test, reference was made to Seikagakujikken Koza compiled by Japan Biochemistry Association, Vol. 5, p. 266-270 (published by Tokyo Kagaku Dojin in 1986).

The test system of assay [3] is murine mixed lymphocyte reaction (spleen cells of BALB/c and C57BL/6 mice). Nature of the assay: Effects on the murine mixed lymphocyte reaction (3H-TdR uptake). Type of assay: cell-based. To be noted: Mus musculus, BALB/c + C57BL/6 spleen cells, 48 hours, read-out: IC50 value, b (murine mixed lymphocyte reaction). As for the experimental part:
Using spleen cells of BALB/c and C57BL/6 mice, the effect of the compound of the formula (I) on the murine mixed lymphocyte reaction in both sides, was studied. Namely, spleen cells of both types of mice were mixed in an equal amount of 5×10^5 cells each, and the mixed cells were cultured together with the compound of the formula (I) for 48 hours on a microplate with 96 wells by a 10% FCS-RPMI solution (in an incubator, 5% CO2, at 37° C.). Then, 0.5 μCi of ^3 H-TdR was added thereto, and the mixture was further cultured for from 16 to 18 hours. Then, cells were collected by a cell harvester, and the radioactivity (dpm) of ^3 H-TdR uptaken into the cells, was measured. Such measured amounts of ^3 H-TdR uptaken into the cells were used as indices for the mixed lymphocyte reaction, and the radioactivity at each concentration (from 0.001 to 1,000 μg/ml) of the compound of the formula (I) was compared with the non-treated control value, to calculate the Ic50 value.
For the basic procedure for this test, reference was made to Selected methods in cellular immunology, p. 147-149 (translated by Katsuyuki Imai et al., published by Rikogakusha, (1982)).

The subject of assay [4] is IgM antibody production from murine spleen B cells. Put plainly: Effects on the IgM antibody production from murine spleen cells (LPS + IL4). Type of assay: cell-based, BALB/c mouse. To be noted: Mus musculus, B-cell, 168 h, read-out: IC50 value, IgM antibody production. As for the experimental part:
as §1, §2, §3

Assay [5] relates to murine thymocytes. Nature of the assay: Effects on the mitogenic response by murine thymocytes (Con A stimulation, 3H-TdR uptake). Type of assay: cell-based, BALB/c murine. The settings on record: Mus musculus, Thymocyte, read-out: IC50 value, a (mitogenic response of murine thymocytes). As for the experimental part:
Using BALB/c murine thymocytes, the effect of the compound of the formula (I) on the mitogenic response of lymphocytes to the stimulation by concanavalin A (hereinafter referred to simply as Con A, Product No. L-1000, manufactured by Vector Laboratories) was studied. Namely, 4×10^5 murine thymocytes were cultured for 48 hours on a microplate with 96 wells in a RPMI1640 solution containing 10% of a fetal bovine serum (hereinafter referred to simply as a 10% FCS-RPMI solution) together with Con A (5 μg/ml) and the compound of the formula (I) (in an incubator, 5% CO2, at 37° C.). Then, 0.5 μCi of ^3 H-thymidine (hereinafter referred to simply as ^3 H-TdR) was added thereto, and the mixture was further cultured for 4 hours. Then, cells were collected by a cell harvester, and the radioactivity (dpm) of ^3 H-TdR uptaken into cells was measured. Such measured amounts of ^3 H-TdR uptaken into the cells were used as indices of the mitogenic response of the murine thymocytes, and the radioactivity at each concentration (from 0.001 to 1,000 μg/ml) of the compound of the formula (I) was compared with the control value treated solely by Con A, to calculate IC50 value. In these Tables 12 and 13, the results of murine thymocytes are shown by (a).
For the basic procedure of this test, reference was made to Selected methods in cellular immunology, p. 144-146 (translated by Katsuyuki Imai et al., published by Rikogakusha, (1982)).

The test system of assay [6] is IgGl antibody production from murine spleen B cells. Put plainly: Effects on the IgGl antibody production from murine spleen cells (LPS + IL4). Type of assay: cell-based, BALB/c mouse. The settings on record: Mus musculus, B-cell, 168 h, read-out: IC50 value, IgGl antibody production. As for the experimental part: as §1, §2, §3
Where [7] appears, read: spleen B cells, LPS 10 μg/ml, IL4 100 U/ml, 7 days, enzyme-immunoassay.
The mark [8] stands for this setting: bone marrow cells, 20% L929 culture supernatant, 48 hours, 3H-TdR uptake, Tables 12-15, read-out: IC50 value, c (murine bone mallow cells).
[9] abbreviates: BALB/c thymocytes, Con A 5 μg/ml, 48 hours, 3H-TdR uptake.

In brackets after ≈: the same amount, converted by molar mass. Read-outs that look alike come from different tables or passages of the source.

As to `CC(C)CC(=O)O[C@H]1C=C[C@H]2CO[C@@H]1O2` [Compound 2, 1,6-anhydro-3,4-dideoxy-2-O-isovaleryl-β-D-threo-hex-3-enopyranose], the IC50 was 370 µg/mL in assay [1] (setting [7]); over 1000 µg/mL in assay [2] (setting [8]); 560 µg/mL in assay [3]; 250 µg/mL in assay [4] (setting [7]); 350 µg/mL (≈ 1650 µM) in assay [5] (setting [9]); 300 µg/mL in assay [6] (setting [7]).
With `C/C=C/C(=O)O[C@H]1C=C[C@H]2CO[C@@H]1O2` [Compound 3], the half-maximal inhibitory concentration (IC50) in assay [1] (setting [7]) is 0.024 µg/mL; in assay [2] (setting [8]) it was 130 µg/mL (≈ 663 µM); in assay [3], 0.0044 µg/mL; in assay [4] (setting [7]), under 0.001 µg/mL; in assay [5] (setting [9]), 0.0044 µg/mL (≈ 0.0224 µM); in assay [6] (setting [7]), 2.4 µg/mL.
On to `O=C(O[C@H]1C=C[C@H]2CO[C@@H]1O2)C1CCCCC1` [Compound 4], for which the IC50 in assay [1] (setting [7]) amounted to 11 µg/mL; in assay [2] (setting [8]) it was 160 µg/mL (≈ 671 µM); in assay [3], 140 µg/mL; in assay [4] (setting [7]), 56 µg/mL; in assay [5] (setting [9]), 450 µg/mL (≈ 1890 µM); in assay [6] (setting [7]), 100 µg/mL.
On to `O=C(O[C@H]1C=C[C@H]2CO[C@@H]1O2)c1ccccc1` [Compound 5], for which the IC50 was determined as 71 µg/mL in assay [1] (setting [7]); 150 µg/mL (≈ 646 µM) in assay [2] (setting [8]); 130 µg/mL in assay [3]; 170 µg/mL in assay [4] (setting [7]); 130 µg/mL (≈ 560 µM) in assay [5] (setting [9]); 300 µg/mL in assay [6] (setting [7]).
Take `CCCCCC(=O)O[C@H]1C=C[C@H]2CO[C@@H]1O2` [Compound 6]: the IC50 in assay [1] (setting [7]) was determined as 210 µg/mL; in assay [2] (setting [8]), 270 µg/mL (≈ 1190 µM); in assay [3] it was 540 µg/mL; in assay [4] (setting [7]) it was 330 µg/mL; in assay [5] (setting [9]), 250 µg/mL (≈ 1100 µM); in assay [6] (setting [7]), 450 µg/mL.
As to `CCCCCCCCCCCCCCCC(=O)O[C@H]1C=C[C@H]2CO[C@@H]1O2` [Compound 7], the IC50 in assay [1] (setting [7]) was 180 µg/mL; in assay [2] (setting [8]), 89 µg/mL (≈ 243 µM); in assay [3], 76 µg/mL; in assay [4] (setting [7]), 410 µg/mL; in assay [5] (setting [9]), 49 µg/mL (≈ 134 µM); in assay [6] (setting [7]) it was 330 µg/mL.
For `CCCCCCCC/C=C\CCCCCCCC(=O)O[C@H]1C=C[C@H]2CO[C@@H]1O2` [Compound 8], the IC50 was 310 µg/mL in assay [1] (setting [7]), over 1000 µg/mL in assay [2] (setting [8]), 340 µg/mL in assay [4] (setting [7]) and 810 µg/mL in assay [6] (setting [7]).
With `CC(=O)O[C@H]1C=C[C@H]2CO[C@@H]1O2` [Compound 9], the IC50 in assay [1] (setting [7]) is 320 µg/mL; in assay [2] (setting [8]) it was over 1000 µg/mL; in assay [4] (setting [7]), 720 µg/mL; in assay [6] (setting [7]) it was 790 µg/mL.
In the case of `O=C(CCl)O[C@H]1C=C[C@H]2CO[C@@H]1O2` [Compound 10], the IC50 was under 0.001 µg/mL in assay [1] (setting [7]); 68 µg/mL (≈ 332 µM) in assay [2] (setting [8]); 18 µg/mL in assay [3]; under 0.001 µg/mL in assay [4] (setting [7]); 1.4 µg/mL (≈ 6.84 µM) in assay [5] (setting [9]); under 0.001 µg/mL in assay [6] (setting [7]).
In the case of `O=C(/C=C/c1ccccc1)O[C@H]1C=C[C@H]2CO[C@@H]1O2` [Compound 18], the IC50 is under 0.001 µg/mL in assay [1] (setting [7]), 370 µg/mL (≈ 1430 µM) in assay [2] (setting [8]), 0.68 µg/mL in assay [4] (setting [7]) and under 0.001 µg/mL in assay [6] (setting [7]).
For the molecule `Nc1ccccc1C(=O)O[C@H]1C=C[C@H]2CO[C@@H]1O2` [Compound 19], the 50% inhibitory concentration (IC50) in assay [1] amounted to 32 µg/mL; in assay [2] (L929, read-out: IC50 value, c (murine bone mallow cells)), 160 µg/mL (≈ 647 µM); in assay [4] it was 76 µg/mL; in assay [5], 0.39 µg/mL (≈ 1.58 µM); in assay [6] it was 24 µg/mL.
`COC(=O)O[C@H]1C=C[C@H]2CO[C@@H]1O2` [Compound 21, 1,6-anhydro-3,4-dideoxy-2-O-methoxycarbonyl-β-D-threo-hex-3-enopyranose]: the IC50 in assay [1] (setting [7]) was 17 µg/mL; in assay [2] (setting [8]) it was over 1000 µg/mL; in assay [4] (setting [7]), 130 µg/mL; in assay [6] (setting [7]), 500 µg/mL.
In the same order, the values of `CCCCCCCCCCCCCCCC(=O)O[C@@]1(C)C=C[C@H]2CO[C@@H]1O2` [Compound 33] are 460 µg/mL, over 1000 µg/mL, 5.6 µg/mL and 340 µg/mL.
Take `CO[C@H]1C=C[C@H]2CO[C@@H]1O2` [Compound 41, 1,6-anhydro-3,4-dideoxy-2-O-methyl-β-D-threo-hex-3-enopyranose]: the IC50 in assay [1] (setting [7]) is 0.95 µg/mL; in assay [2] (setting [8]), over 1000 µg/mL; in assay [4] (setting [7]), over 1000 µg/mL; in assay [6] (setting [7]), 670 µg/mL.
